According to PubChem BioAssay AID624254 (Broad Institute, 2012):
Activity calls are given as the source filed them. How the calls were made is not given here.

Assay: Quorum luxo inducers, light production, v cholerae bh1651 luxod47e, confirmatory dose response (AID 624254)
Conditions: V. cholerae BH1651 luxOD47E, luciferase light induction, 6 h; at 50 µM (top of the series)

SMILES	activation (light increase)
COc1ccc(/C(N)=N/OC(=O)Cc2ccccc2OC)cc1	inactive
CCOc1ccccc1N(CC(=O)Nc1ccc2c(c1)OCCO2)S(C)(=O)=O	inactive
Cc1ccc(Oc2ccc(Cl)cc2NC(=O)c2cnccn2)cc1	inactive
CCNC(=O)OCc1cn(-c2ccccc2)nn1	inactive
CN(C)c1nc(N)ncc1-c1ccc(Oc2ccccc2)cc1	inactive
O=C(Cc1ccc(-c2ccccc2)cc1)NC1CCCC1	inactive
CCCc1cc(Nc2ccccc2OCC)n2ncnc2n1	inactive
CN(CC(=O)Nc1ccc(F)c(F)c1F)C(=O)C1CCC1	inactive
Cc1cccc(OC(C)C(=O)NC2CCS(=O)(=O)C2)c1C (stereo not given)	inactive
Cn1cnc(S(=O)(=O)Nc2ccc(C(F)(F)F)cc2)c1	inactive
CCOc1ccc(Nc2ccc3nonc3c2[N+](=O)[O-])cc1	inactive
CC(C)(C)OC(=O)NCCCC(CCCNC(=O)OC(C)(C)C)C(=O)O	inactive
Cc1cccc(NC(=O)CSc2nc(=O)n(CCN3CCOCC3)c3c2CCCC3)c1C	inactive
CCCCN1C(=O)C(O)(CC(=O)c2ccccn2)c2ccccc21 (stereo not given)	inactive
CCCS(=O)(=O)N1CCCC(C(=O)NCCCN(C)Cc2ccccc2)C1 (stereo not given)	inactive
O=C(c1cc(-c2ccc3c(c2)OCO3)on1)N1CCN(c2ccc(F)cc2)CC1	inactive
O=c1c2ccccc2nnn1CSc1nnc(-c2cccnc2)n1-c1ccccc1F	inactive
CC(C)(C)c1ccc(C(=O)OCC(=O)NC2CC2)cc1	inactive
CC(=O)Nc1ccc(S(=O)(=O)NCCC(=O)OCC(=O)c2cc(C)ccc2C)cc1	inactive
O=C(CN1C(=O)COc2ccccc21)c1ccc(Cl)cc1	inactive
Cc1nn(-c2ccccc2)c(C)c1NC(=O)COC(=O)c1cccc(OC(F)F)c1	inactive
COc1ccc(OCC(=O)Nc2ccccc2OC)cc1	inactive
Cc1ccc(N(C(C)C(=O)N2CCCCC2)S(C)(=O)=O)cc1C (stereo not given)	inactive
CC1CCCN(C(=O)c2ccc3c(=O)n(Cc4ccc5c(c4)OCO5)c(=S)[nH]c3c2)C1 (stereo not given)	inactive
COc1cccc(-c2nc(OC(C)C)c3ccccc3n2)c1	inactive

SMILES	activation (light increase)
Cc1ccccc1C(=O)Nc1ccc(-c2nc3ccc(C(=O)c4ccccc4)cc3[nH]2)cc1	inactive
Cc1ccc(C)c(N2CCN(C(c3ccc(N(C)C)cc3)c3nnnn3C(C)(C)C)CC2)c1 (stereo not given)	inactive
COCCn1nnnc1CN1CCC(NC(=O)Nc2cccc(OC)c2)CC1	inactive
Cc1ccccc1-n1ccnc1SCC(=O)NCC1CCCO1 (stereo not given)	inactive
CCOC(=O)CC(=O)Nc1nnc(C(C)C)s1	inactive
COc1cc(SC)ccc1C(=O)OCC(=O)NCC(C)C	inactive
COc1ccccc1CNC(=O)c1ccc(S(=O)(=O)N(C)c2ccccc2)cc1	inactive
COc1ccc(NC(=O)CSc2ccc3c(c2)OCCO3)cc1OC	inactive
Cn1c(=O)c2c(nc(SCCN3CCOCC3)n2Cc2cccc3ccccc23)n(C)c1=O	inactive
COc1ccc(NC(=O)C(=O)NCC2CCCN2S(=O)(=O)c2ccc(C)cc2)cc1 (stereo not given)	inactive
O=C1C(=O)N(Cc2ccco2)C(c2cccc(Cl)c2)/C1=C(\O)c1ccc2c(c1)OCCO2 (stereo not given)	inactive
COCCNC(=O)CN1CCN(C(c2ccccc2)c2ccccc2)CC1	inactive
C=Cn1c(C(=O)O)ccc1-c1ccc(Cl)cc1	inactive
COCCNC(=O)c1cnn2c1NC(c1ccco1)CC2C(F)(F)F (stereo not given)	inactive
CCc1ccc(-c2ccc(C(=O)O)n2C)cc1	inactive
COc1ccc(S(=O)(=O)N2CCCC(C(=O)NCc3ccncc3)C2)cc1 (stereo not given)	inactive
COc1ccccc1NC(=O)CN1CCN(c2ccccc2F)CC1	inactive
O=C(OCc1cc(=O)n2ccsc2n1)c1ccc(OC(F)F)cc1	inactive
C=CCn1c(-c2cc(OC)cc(OC)c2)n[nH]c1=S	inactive
CN(C)S(=O)(=O)c1ccc(NC(=S)NC(=O)Cc2ccccc2)cc1	inactive
CC(C#N)On1c(SC(C)C#N)nc2ccccc2c1=O (stereo not given)	inactive
Cc1ccc(C)c(S(=O)(=O)Nc2ccc(-n3cnnn3)cc2)c1	inactive
CC(=O)C(CC(=O)N1CCCc2ccccc21)C(=O)Nc1ccc(F)cc1 (stereo not given)	inactive
CN(Cc1nc2ccccc2n1C)C(=O)c1ccco1	inactive
CC(C)CNC(=O)c1c2c(nc3ccccc13)-c1ccccc1CC2	inactive

SMILES	activation (light increase)
COc1ccccc1NC(=O)CN1CCN(C(=O)C2CCCO2)CC1 (stereo not given)	inactive
O=C(c1ccc2c(c1)OCO2)N(Cc1ccco1)C1(C(=O)NC2CCCCC2)CCCCC1	inactive
O=C(Nc1cccc(-c2ccc(N3CCOCC3)nn2)c1)c1ccccc1Cl	inactive
Cc1cccc(OCC(=O)N(C)CCc2ccccn2)c1	inactive
CCC(C)(C)n1nnnc1CN1CCN(c2nc3ccc(C)cc3cc2C#N)CC1	inactive
O=C(COC(=O)[C@H](Cc1c[nH]c2ccccc12)NC(=O)c1ccc(Cl)cc1)Nc1ccc2c(c1)OCO2	inactive
Cc1ccc(S(=O)(=O)Nc2cc(C(=O)NCCN(C)C)ccc2N2CCCCC2)cc1	inactive
COC(=O)c1[nH]c2ccc(C)cc2c1NC(=O)Nc1ccc(OC)cc1	inactive
COc1cc2c(cc1OC)C(c1ccc(C)cc1)NC(=O)C2 (stereo not given)	inactive
Cc1cc(C)cc(OC(=O)c2cccnc2)c1	inactive
CC1(C)NC(=O)N(CCOCCOc2ccc3ccccc3c2Br)C1=O	inactive
CCc1ccc(C(=O)OCC(=O)NC2CCCC2)cc1	inactive
COc1ccccc1NS(=O)(=O)c1cn(C)cn1	inactive
O=C(c1ccccc1)N1CCC(c2nc(-c3ccc(S(=O)(=O)N4CCOCC4)cc3)no2)CC1	inactive
Cc1ccc(S(=O)(=O)N2Cc3ccccc3CC2C(=O)Nc2ccc3c(c2)OCO3)cc1 (stereo not given)	inactive
CC(C)c1ccc(OCC(=O)NC2CCCC2)cc1	inactive
COc1cc2c(c(OC)c1OC)C(c1ccc(C)cc1)CC(=O)O2 (stereo not given)	inactive
CC(C)NC(=O)c1cnc(Sc2ncc(C(F)(F)F)cc2Cl)n1C	inactive
CCCOC(=O)c1ccc(NC(=O)C2CCCO2)cc1 (stereo not given)	inactive
CCCn1nnnc1NCc1ccc(N(CC)CC)cc1	inactive
COc1ccc(S(=O)(=O)N(C)C[C@H]2Oc3c(NC(=O)Nc4ccc5c(c4)OCO5)cccc3C(=O)N([C@H](C)CO)C[C@@H]2C)cc1	inactive
O=S(=O)(Nc1ccc(-c2ccc3nncn3n2)cc1)c1ccc(Cl)s1	inactive
COCCCNC(=O)c1ccc2c(=O)n(C3CCCC3)c(=S)[nH]c2c1	inactive
COc1ccc(N2CCN(CC(=O)Nc3c(C)cc(C)cc3C)CC2)cc1	inactive
CCC1C(=O)NCCN1C(=O)CCc1nnc(CCc2ccc(OC)cc2)o1 (stereo not given)	inactive

SMILES	activation (light increase)
CCCCNC(=O)c1ccccc1NC(=O)CCSc1ccccc1	inactive
CCCn1nnnc1NCc1ccc(CC)cc1	inactive
CC(OC(=O)c1ccc(-n2cnnn2)cc1)C(=O)N(C)c1ccccc1 (stereo not given)	inactive
O=S(=O)(Nc1ccccn1)c1ccc(Oc2ccccc2)cc1	inactive
CCN(CC)c1nc(-c2ccccc2)cc(C(F)(F)F)c1C#N	inactive
CCn1c(SCC(=O)OC2CCCCC2)nnc1-c1ccncc1	inactive
O=c1[nH]c2ccccc2n1Cc1ccc(Cl)cc1	inactive
C[C@H]1CN([C@@H](C)CO)C(=O)c2cccc(NC(=O)C3CC3)c2O[C@@H]1CN(C)S(=O)(=O)c1cccs1	inactive
O=C(COC(=O)c1ccc(O)cc1)c1ccc2c(c1)OCCO2	inactive
Cc1ccc(S(=O)(=O)NCCC(=O)O)cc1	inactive
COC(=O)c1ccc(CSc2nnc3c(Cl)cc(Cl)cn23)o1	inactive
O=C(COC(=O)c1ccc(Br)cc1)NC1CCCC1	inactive
CCCn1nnnc1NCc1ccc(SC)cc1	inactive
CCS(=O)(=O)N1CCN(C(=O)CCC2CCCC2)CC1	inactive
COc1ccc(-c2nnn(CC(=O)c3ccc4c(c3)OCCO4)n2)cc1OC	inactive
CCC(O)(CCN1CCCCC1)c1ccccc1 (stereo not given)	inactive
COc1ccc(C(=O)NC2CCSC2=O)cc1 (stereo not given)	inactive
Cc1ccccc1C(=O)Nc1cccc(N)c1	inactive
Cc1cc(C(F)(F)F)c2c(N)c(C(=O)NC3CC3)sc2n1	inactive
CCC(CCC(=O)Nc1cccc(C(=O)O)c1)C(=O)O (stereo not given)	inactive
CCOC(=O)c1nnn(-c2nonc2N)c1CN1CCc2ccccc2C1	inactive
O=C(NCc1ccc2c(c1)OCO2)C1CCCN1C(=O)Nc1cccc(Cl)c1 (stereo not given)	inactive
CCCCn1c(=O)[nH]c(=O)c2c1nc(COc1ccc(C#N)cc1)n2CCC	inactive
CC(=O)N1CCC(=O)N(C(C)C)c2ccccc21	inactive
CN(Cc1cn[nH]c1-c1cc2ccccc2o1)CC1CCOCC1	inactive
